In paper PMC12470260, “Functional Divergence of Two General Odorant-Binding Proteins to Sex Pheromones and Host Plant Volatiles in Adoxophyes orana (Lepidoptera: Tortricidae)” (Insects, 2025):
“And” between values parts separate entries of the source, which are not always exact repeats. Equal values may be shown once.

How the values were obtained:
AoraGOBP2 = assay: Fluorescence competitive binding assay (1-NPN probe) with rAoraGOBP2; design: species or system Adoxophyes orana; details: for Ki: competitive displacement of 1-NPN, 20 mM Tris-HCl pH 7.4, mean ± S.E.M., read-out: Ki (μM) GOBP2
Protocol: (§1) The fluorescent competitive binding assays were conducted using an F-2700 spectrophotofluorometer (Hitachi, Tokyo, Japan) to evaluate the binding affinities of AoraGOBP1 and AoraGOBP2 to sex pheromones, and HPVs. […] With the increase of 1 − NPN concentration, the change in fluorescence intensity decreased and eventually stabilized, and the data were recorded. Binding dissociation constant K1−NPN (Kd) of 1 − NPN to rAoraGOBPs were determined. Then, 2 mL protein solution containing 2 μM rAoraGOBPs was titrated with 1 μM of each ligand to a final concentration of 18 µM. The fluorescence intensity was measured and recorded after a 2 min reaction. The Ki for competitive binding of each ligand to rAoraGOBPs using the formula Ki = [IC50]/(1 + [1 − NPN]/K1−NPN), where IC50 is the ligand concentration corresponding to 50% displacement of 1 − NPN. Each assay was replicated three times biologically. The Kd and Ki are presented as mean ± S.E.M.

AoraGOBP1 = assay: Fluorescence competitive binding assay (1-NPN probe) with rAoraGOBP1; design: species or system Adoxophyes orana; details: for Binding affinity to AoraGOBP1 (in words): fluorescence competitive binding; for Ki: competitive displacement of 1-NPN, 20 mM Tris-HCl pH 7.4, mean ± S.E.M., read-out: Ki (μM) GOBP1
Protocol: as §1

[1] = fluorescent probe titration, 2 μM protein, pH 7.4

Row | Ki (AoraGOBP2; 2 μM protein) | Ki (AoraGOBP1; 2 μM protein) | Compound | other results
1 | – | – | c1ccc(Nc2cccc3ccccc23)cc1 [1 − NPN, reference compound] | Kd (AoraGOBP2; [1]): 1.65 µM; Kd (AoraGOBP1; [1]): 18.4 µM
2 | 1.49 ± 0.01 µM | – | CCCC/C=C\CCCCCCCCO [Z9-14:OH, (Z)-9-tetradecen-1-ol] | Binding affinity to AoraGOBP1 (in words) (AoraGOBP1): did not
3 | 1.21 µM and 1.24 µM | – | CCCC/C=C\CCCCCCCCO [Z11-14:OH, (Z)-9-tetradecen-1-ol] | Binding affinity to AoraGOBP1 (in words) (AoraGOBP1): did not
4 | – | 11.9 ± 0.41 µM | CC(C)C=O [Isobutyraldehyde] | –
5 | – | 11.7 ± 0.44 µM | CC(C)=CCCC(C)=CC=O (mixture of isomers) [Citral] | –
6 | 6.96 ± 0.32 µM | – | Farnesene | –
7 | – | 11.78 ± 0.08 µM | CCOC(=O)C(C)CC (stereo not shown) [Ethyl 2-methylbutanoate] | –
8 | – | 0.78 ± 0.15 µM | CCCCCCCCCC=O [Decanal] | –
9 | – | 5.08 ± 0.13 µM | CCCCC/C=C\C=C\C(=O)OCC [Pear ester] | –
10 | – | 6.21 ± 0.18 µM | CC/C=C\CCOC(=O)CC(C)C [(Z)-3-Hexen-1-yl 3-methylbutanoate] | –
11 | 1.74 ± 0.03 µM | – | CCCCCCCCCCCCO [12:OH] | –
12 | 6.46 ± 0.18 µM | – | CCCC/C=C\CCCCCCCCOC(C)=O [Z9-14:Ac, (Z)-9-tetradecenyl acetate] | Binding affinity to AoraGOBP2 (in words) (AoraGOBP2; fluorescence competitive binding): moderate binding affinity; Binding affinity to AoraGOBP1 (in words) (AoraGOBP1): did not
13 | – | 10.2 ± 0.14 µM | C=CC(O)CC (stereo not shown) [1-Penten-3-ol] | –
14 | 1.13 ± 0.02 µM | – | CC(C)=CCC/C(C)=C/CC/C(C)=C/CO [Farnesol] | –
15 | – | 4.41 ± 0.2 µM | COC(=O)c1ccccc1O [Methyl salicylate] | –

Row | Compound | Ki (AoraGOBP2; 2 μM protein) | Ki (AoraGOBP1; 2 μM protein) | other results
16 | CCCCOC(=O)c1ccccc1C(=O)OCCCC [Dibutyl phthalate] | 5.33 ± 0.04 µM | 10.27 ± 0.07 µM | –
